Experiment: Stability test of higher-concentration nasal spray solutions (hydrochloride in aqueous solution, packed in aluminium pouch)
Assay type: physicochemical
Details: for Gehalt an Wirkstoff (A): as free base
Method: Stabilitätsprüfung höher konzentrierter erfindungsgemäßer Nasalspray-Lösungen:
Die nachfolgende Tabelle zeigt, dass die oxidative Zersetzung des nachstehend aufgeführten Wirkstoffs
Die zum Teil (insbesondere bei 40°C) hohe Gesamtzersetzung beruht auf Hydrolyse.
Der in der Tabelle 1 angegebene Gehalt an Wirkstoff (A) bezieht sich jeweils auf die ursprünglich eingewogene freie Base.

[1] = Wirkstoff-Konzentration 15 %, 3-Monats-Wert, 25°C, 129600 min
[2] = Wirkstoff-Konzentration 15 %, 3-Monats-Wert, 40°C, 129600 min
[3] = Wirkstoff-Konzentration 15 %, 6-Monats-Wert, 25°C, 259200 min
[4] = Wirkstoff-Konzentration 15 %, 6-Monats-Wert, 40°C, 259200 min
[5] = Wirkstoff-Konzentration 15 %, 6-Wochen-Wert, 25°C, 60480 min
[6] = Wirkstoff-Konzentration 15 %, 6-Wochen-Wert, 40°C, 60480 min
[7] = Wirkstoff-Konzentration 15 %, Anfangswert
[8] = Wirkstoff-Konzentration 20 %, 3-Monats-Wert, 25°C, 129600 min
[9] = Wirkstoff-Konzentration 20 %, 3-Monats-Wert, 40°C, 129600 min
[10] = Wirkstoff-Konzentration 20 %, 6-Monats-Wert, 25°C, 259200 min
[11] = Wirkstoff-Konzentration 20 %, 6-Monats-Wert, 40°C, 259200 min
[12] = Wirkstoff-Konzentration 20 %, 6-Wochen-Wert, 25°C, 60480 min
[13] = Wirkstoff-Konzentration 20 %, 6-Wochen-Wert, 40°C, 60480 min
[14] = Wirkstoff-Konzentration 20 %, Anfangswert
[15] = Wirkstoff-Konzentration 30 %, 3-Monats-Wert, 25°C, 129600 min
[16] = Wirkstoff-Konzentration 30 %, 3-Monats-Wert, 40°C, 129600 min
[17] = Wirkstoff-Konzentration 30 %, 6-Monats-Wert, 25°C, 259200 min
[18] = Wirkstoff-Konzentration 30 %, 6-Monats-Wert, 40°C, 259200 min
[19] = Wirkstoff-Konzentration 30 %, 6-Wochen-Wert, 25°C, 60480 min
[20] = Wirkstoff-Konzentration 30 %, 6-Wochen-Wert, 40°C, 60480 min
[21] = Wirkstoff-Konzentration 30 %, Anfangswert

In the case of `NCCCC[C@H](NC(=O)[C@@H](Cc1cc(Br)c(O)c(Br)c1)NC(=O)N1CCC(N2Cc3ccccc3NC2=O)CC1)C(=O)N1CCN(c2ccncc2)CC1` [(A), 1-[N^2-[3,5-Dibrom-N-[[4-(3,4-dihydro-2(1 H)-oxochinazolin-3-yl)-1-piperidinyl]-carbonyl]-D-tyrosyl]-L-lysyl]-4-(4-pyridinyl)-piperazin], the Gesamt-Zersetzung [1] is reported as 1,69%, the “Zersetzung durch Oxidation” value [1] is reported as 0,64% and the “Gehalt an Wirkstoff (A)” value (Wirkstoff-Konzentration 15 %, 3-Monats-Wert, 25°C) is reported as 147,7mg/ml. For the same molecule, the Gesamt-Zersetzung [2] was 8,22%, the “Zersetzung durch Oxidation” value [2] was 0,55% and the “Gehalt an Wirkstoff (A)” value (Wirkstoff-Konzentration 15 %, 3-Monats-Wert, 40°C) was 139,4mg/ml. For the same molecule, the Gesamt-Zersetzung [3] was 2,07%, the “Zersetzung durch Oxidation” value [3] was 0,82% and the “Gehalt an Wirkstoff (A)” value (Wirkstoff-Konzentration 15 %, 6-Monats-Wert, 25°C) was 147,7mg/ml. For the same molecule, the Gesamt-Zersetzung [4] was 15.33%, the “Zersetzung durch Oxidation” value [4] was 0,78% and the “Gehalt an Wirkstoff (A)” value (Wirkstoff-Konzentration 15 %, 6-Monats-Wert, 40°C) was 131,7mg/ml. The Gesamt-Zersetzung [5] was 1,60%, the “Zersetzung durch Oxidation” value [5] was 0,72% and the “Gehalt an Wirkstoff (A)” value (Wirkstoff-Konzentration 15 %, 6-Wochen-Wert, 25°C) was 148,1mg/ml. For the same molecule, the Gesamt-Zersetzung [6] was 4,46%, the “Zersetzung durch Oxidation” value [6] was 0,52% and the “Gehalt an Wirkstoff (A)” value (Wirkstoff-Konzentration 15 %, 6-Wochen-Wert, 40°C) was 142,3mg/ml. For the same molecule, the Gesamt-Zersetzung [7] was 1,23%, the “Zersetzung durch Oxidation” value [7] was 0,59% and the “Gehalt an Wirkstoff (A)” value [7] was 148,6mg/ml. The Gesamt-Zersetzung [8] was 1,50%, the “Zersetzung durch Oxidation” value [8] was 0,53% and the “Gehalt an Wirkstoff (A)” value (Wirkstoff-Konzentration 20 %, 3-Monats-Wert, 25°C) was 202,8mg/ml. For the same molecule, the Gesamt-Zersetzung [9] was 8,23%, the “Zersetzung durch Oxidation” value [9] was 0,47% and the “Gehalt an Wirkstoff (A)” value (Wirkstoff-Konzentration 20 %, 3-Monats-Wert, 40°C) was 191,4mg/ml. The Gesamt-Zersetzung [10] was 1,99%, the “Zersetzung durch Oxidation” value [10] was 0,77% and the “Gehalt an Wirkstoff (A)” value (Wirkstoff-Konzentration 20 %, 6-Monats-Wert, 25°C) was 201,8m/ml. For the same molecule, the Gesamt-Zersetzung [11] was 14,61%, the “Zersetzung durch Oxidation” value [11] was 0,74% and the “Gehalt an Wirkstoff (A)” value (Wirkstoff-Konzentration 20 %, 6-Monats-Wert, 40°C) was 182,8mg/ml. The Gesamt-Zersetzung [12] was 1,09%, the “Zersetzung durch Oxidation” value [12] was 0,54% and the “Gehalt an Wirkstoff (A)” value (Wirkstoff-Konzentration 20 %, 6-Wochen-Wert, 25°C) was 198,7mg/ml. For the same molecule, the Gesamt-Zersetzung [13] was 3,97%, the “Zersetzung durch Oxidation” value [13] was 0,55% and the “Gehalt an Wirkstoff (A)” value (Wirkstoff-Konzentration 20 %, 6-Wochen-Wert, 40°C) was 192,1mg/ml. The Gesamt-Zersetzung [14] was 1,27%, the “Zersetzung durch Oxidation” value [14] was 0,56% and the “Gehalt an Wirkstoff (A)” value [14] was 197,9mg/ml. For the same molecule, the Gesamt-Zersetzung [15] was 1,48%, the “Zersetzung durch Oxidation” value [15] was 0,60% and the “Gehalt an Wirkstoff (A)” value (Wirkstoff-Konzentration 30 %, 3-Monats-Wert, 25°C) was 270 mg/mL. For the same molecule, the Gesamt-Zersetzung [16] was 7.81%, the “Zersetzung durch Oxidation” value [16] was 0,59% and the “Gehalt an Wirkstoff (A)” value (Wirkstoff-Konzentration 30 %, 3-Monats-Wert, 40°C) was 260 mg/mL. The Gesamt-Zersetzung [17] was 2,04%, the “Zersetzung durch Oxidation” value [17] was 0,91% and the “Gehalt an Wirkstoff (A)” value (Wirkstoff-Konzentration 30 %, 6-Monats-Wert, 25°C) was 273 mg/mL. The Gesamt-Zersetzung [18] was 13,36%, the “Zersetzung durch Oxidation” value [18] was 0,84% and the “Gehalt an Wirkstoff (A)” value (Wirkstoff-Konzentration 30 %, 6-Monats-Wert, 40°C) was 246 mg/mL. The Gesamt-Zersetzung [19] was 1,19%, the “Zersetzung durch Oxidation” value [19] was 0,62% and the “Gehalt an Wirkstoff (A)” value (Wirkstoff-Konzentration 30 %, 6-Wochen-Wert, 25°C) was 264 mg/mL. The Gesamt-Zersetzung [20] was 3,95%, the “Zersetzung durch Oxidation” value [20] was 0,58% and the “Gehalt an Wirkstoff (A)” value (Wirkstoff-Konzentration 30 %, 6-Wochen-Wert, 40°C) was 260 mg/mL. The Gesamt-Zersetzung [21] was 1,20%, the “Zersetzung durch Oxidation” value [21] was 0,56% and the “Gehalt an Wirkstoff (A)” value [21] was 269 mg/mL. The “oxidative Zersetzung” value (hydrochloride in aqueous solution, over a long period) was “praktisch unverändert”.

Source: patent publication EP1517674B1, “PREPARATIONS FOR THE INTRANASAL APPLICATION OF SELECTED CGRP A[…] FROM AMINO ACIDS AND A METHOD FOR THEIR PRODUCTION” (Boehringer Ingelheim Pharma GmbH & Co. KG, priority 2002, dated 2003)
